The record followed here is US10894807B2 (Siemens Medical Solutions USA, Inc., priority 2011, dated 2021).

A value given as a limit tells only on which side of the number the result lay.

The target in the assay is human PSMA (Homo sapiens (Human), UniProt Q04609). Nature of the assay: Enzymatic assay for in vitro evaluation of PSMA inhibitors (fluorescent assay of PSMA activity, NAAG substrate, OPA detection of glutamate). Type of assay: biochemical.
Sequence of human PSMA (Q04609 whole entry): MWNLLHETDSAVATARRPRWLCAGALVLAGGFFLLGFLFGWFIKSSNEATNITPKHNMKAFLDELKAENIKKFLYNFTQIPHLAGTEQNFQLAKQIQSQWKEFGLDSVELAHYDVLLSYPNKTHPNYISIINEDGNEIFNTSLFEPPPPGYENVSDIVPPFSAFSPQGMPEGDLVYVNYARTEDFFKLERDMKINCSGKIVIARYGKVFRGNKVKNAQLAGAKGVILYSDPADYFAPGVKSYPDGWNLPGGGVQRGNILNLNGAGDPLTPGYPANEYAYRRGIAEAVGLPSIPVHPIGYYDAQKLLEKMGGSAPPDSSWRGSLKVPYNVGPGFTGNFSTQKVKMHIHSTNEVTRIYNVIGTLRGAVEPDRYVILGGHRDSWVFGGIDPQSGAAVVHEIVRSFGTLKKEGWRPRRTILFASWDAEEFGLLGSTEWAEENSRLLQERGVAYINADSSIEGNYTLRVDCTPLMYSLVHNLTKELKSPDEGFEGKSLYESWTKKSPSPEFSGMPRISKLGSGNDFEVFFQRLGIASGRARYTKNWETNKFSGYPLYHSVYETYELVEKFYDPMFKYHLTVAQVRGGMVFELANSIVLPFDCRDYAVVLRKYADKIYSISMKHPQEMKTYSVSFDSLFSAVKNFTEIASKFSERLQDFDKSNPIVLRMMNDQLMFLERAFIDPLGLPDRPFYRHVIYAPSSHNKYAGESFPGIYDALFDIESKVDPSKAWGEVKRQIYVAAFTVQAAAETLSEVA

For `[N-]=[N+]=Nc1cc(C(=O)NCCCCCC(=O)N[C@@H](CCC(=O)O)C(=O)O)cc(C(=O)NCCCCCC(=O)N[C@@H](CCC(=O)O)C(=O)O)c1` [P289, (2S,2′S)-2,2′-((6,6′-((5-Azidoisophthaloyl)bis(azanediyl))bis(hexanoyl))-bis(azanediyl))dipentanedioic Acid], the “PSMA Blkg % (1.0 μM)” value was 0%.
The Ki is a dissociation constant, usually derived from enzyme kinetics or from competition with a known ligand. Higher therefore signals weaker binding. Regarding `O=C(O)CC[C@H](NC(=O)N[C@@H](Cc1ccc(Nc2nc(-c3ccc(-n4cc(CCCF)nn4)cc3)cs2)cc1)C(=O)O)C(=O)O` [P240], the inhibition constant (Ki) amounted to 28 nM and the “PSMA Blkg % (1.0 μM)” value is on record as 94%.
As to `CC1(C)C(=O)N([C@@H](CCCCNC(=O)OCc2ccccc2)C(=O)O)C(=O)N([C@@H](CCC(=O)O)C(=O)O)C1=O` [P077, (S)-2-(3-((S)-5-(Benzyloxycarbonylamino)-1-carboxypentyl)-5,5-dimethyl-2,4,6-trioxotetrahydropyrimidin-1(2H)-yl)pentanedioic Acid], where the note is “compound at 10 μM”, the “PSMA Blkg % (10 μM)” value is reported as 28%.
In the case of `O=C(O)/C=C/C(=O)N[C@@H](CCC(=O)O)C(=O)O` [P165], the “PSMA Blkg % (10 μM)” value (compound at 10 μM) is given as 11%.
For `O=C(O)CC[C@@H](NC(=O)N(O)[C@@H](CC(=O)NCc1ccccc1)C(=O)O)C(=O)O` [P135, (R)-2-(3-((S)-3-(Benzylamino)-1-carboxy-3-oxopropyl)-3-hydroxyureido)pentanedioic Acid], the “PSMA Blkg % (10 μM)” value (compound at 10 μM) was 42%.
`O=C(O)CC[C@H](NC(=O)N(O)[C@@H](CCCCNC(=O)c1ccc(OCCF)cc1)C(=O)O)C(=O)O` [P167, (S)-2-(3-((S)-1-Carboxy-5-(4-(2-fluoroethoxy)benzamido)pentyl)-3-hydroxyureido)pentanedioic Acid] registered a Ki of over 657 nM. Where the note is “compound at 10 μM”, the “PSMA Blkg % (10 μM)” value was determined as 93%.
With `CCC1(CC)C(=O)N([C@@H](CCCCNCc2ccc([N+](=O)[O-])cc2)C(=O)O)C(=O)N([C@@H](CCC(=O)O)C(=O)O)C1=O` [P110, (S)-2-(3-((S)-1-carboxy-5-(4-nitrobenzylamino)pentyl)-5,5-diethyl-2,4,6-trioxotetrahydropyrimidin-1(2H)-yl)pentanedioic Acid], the “PSMA Blkg % (10 μM)” value (compound at 10 μM) is on record as 8%.
On the same count and under the same terms, to `O=C(O)CC[C@H](NC(=O)NNC(=O)OCc1ccccc1)C(=O)O` [P056, (S)-2-(2-((Benzyloxy)carbonyl)hydrazinecarboxamido)pentanedioic Acid] belongs 0%.
In the case of `O=C(O)CC[C@H](NC(=O)N[C@@H](Cc1ccc(NC(=O)N2CCN(C(=O)Cn3cc(CCCF)nn3)CC2)cc1)C(=O)O)C(=O)O` [P237, (S)-2-(3-((S)-1-Carboxy-2-(4-(4-(2-(4-(3-fluoropropyl)-1H-1,2,3-triazol-1-yl)acetyl)piperazine-1-carboxamido)phenyl)ethyl)ureido)pentanedioic Acid], the inhibitory constant (Ki) turned out to be 3.8 nM and the “PSMA Blkg % (1.0 μM)” value is 100%.
Turning to `CCC1(CC)C(=O)N([C@@H](CCCCNC(=S)Nc2ccc(-n3cc(CCCF)nn3)cc2)C(=O)O)C(=O)N([C@@H](CCC(=O)O)C(=O)O)C1=O` [P130, (S)-2-(3-((S)-1-Carboxy-5-(3-(4-(4-(3-fluoropropyl)-1H-1,2,3-triazol-1-yl)phenyl)thioureido)pentyl)-5,5-diethyl-2,4,6-trioxotetrahydropyrimidin-1 (2H)-yl)pentanedioic Acid], under “compound at 10 μM”, the “PSMA Blkg % (10 μM)” value amounted to 10%.
Regarding `C[C@@](Cc1cccc(NC(=O)CCCn2cc(CCCF)nn2)c1)(NC(=O)N[C@@H](CCC(=O)O)C(=O)O)C(=O)O` [P255, (S)-2-(3-((S)-2-Carboxy-1-(3-(4-(4-(3-fluoropropyl)-1H-1,2,3-triazol-1-yl)butanamido)-phenyl)propan-2-yl)ureido)pentanedioic Acid], the “PSMA Blkg % (1.0 μM)” value is 62%.
For `O=C(O)CCC(CP(=O)(O)NCCc1ccccc1)C(=O)O` (centres unmarked) [P197, 2-((Hydroxy(phenethylamino)phosphoryl)methyl)pentanedioic Acid], the Ki was over 3000 nM. The “PSMA Blkg % (10 μM)” value (10 μM) stood at 22%.
With `O=C(O)CC[C@H](NC(=O)C[C@@H](NC(=O)CCCNC(=O)c1cc(C(=O)NCCCC(=O)N[C@H](CC(=O)N[C@@H](CCC(=O)O)C(=O)O)C(=O)O)cc([N+](=O)[O-])c1)C(=O)O)C(=O)O` [P298, (2S,2′S)-2,2′-(((3R,3′R)-3,3′-((4,4′-((5-Nitroisophthaloyl)bis(azanediyl))bis(butanoyl))-bis(azanediyl))bis(3-carboxypropanoyl))bis(azanediyl))dipentanedioic Acid], the “PSMA Blkg % (1.0 μM)” value is on record as 88%.
On to `COc1ccc(CCCC(=O)N[C@@H](CC(=O)N[C@@H](CCC(=O)O)C(=O)O)C(=O)O)cc1` [P122, (S)-2-((S)-3-Carboxy-3-(4-(4-methoxyphenyl)butanamido)propanamido)-pentanedioic Acid], for which the “PSMA Blkg % (10 μM)” value (compound at 10 μM) is recorded as 18%.
In turn, `CN(C(=O)N[C@@H](CCC(=O)O)C(=O)O)[C@@H](CCCCNC(=O)c1ccc(F)nc1)C(=O)O` [P133, (S)-2-(3-((S)-1-Carboxy-5-(6-fluoronicotinamide)pentyl)-3-methylureido)-pentanedioic Acid] returned a Ki of 125 nM. For the setting “compound at 10 μM”, the “PSMA Blkg % (10 μM)” value came to 95%.
Turning to `O=C(O)CC[C@H](NC(=O)C[C@@H](NC(=O)CCNC(=O)OCc1ccccc1)C(=O)O)C(=O)O` [P239, (9R,13S)-3,7,11-Trioxo-1-phenyl-2-oxa-4,8,12-triazapentadecane-9,13,15-tricarboxylic Acid], the “PSMA Blkg % (1.0 μM)” value was 33%.
For the compound `O=C(O)CC[C@H](NC(=O)N[C@@H](CCCCn1c(=O)[nH]c2ccc(OCc3cn(CCF)nn3)cc21)C(=O)O)C(=O)O` [P247, (S)-2-(3-((S)-1-Carboxy-5-(6-((1-(2-fluoroethyl)-1H-1,2,3-triazol-4-yl)methoxy)-2-oxo-2,3-dihydro-1H-benzo[d]imidazol-1-yl)pentyl)ureido)pentanedioic Acid], the Ki came out at 0.63 nM and the “PSMA Blkg % (1.0 μM)” value came out at 100%.
`O=C(O)CC[C@H](NC(=S)NC(CCCCNC(=O)OCc1ccccc1)C(=O)O)C(=O)O` (stereo partly drawn) [P070, (13S)-3-Oxo-1-phenyl-11-thioxo-2-oxa-4,10,12-triazapentadecane-9,13,15-tricarboxylic Acid] came in with a Ki of 59 nM. Also, the “PSMA Blkg % (10 μM)” value (compound at 10 μM) is given as 94%.
For the compound `O=C(O)CC[C@H](NC(=O)N[C@@H](CCCCNc1cc(OCc2cn(CCF)nn2)ccc1[N+](=O)[O-])C(=O)O)C(=O)O` [P242, (S)-2-(3-((S)-1-Carboxy-5-((5-((1-(2-fluoroethyl)-1H-1,2,3-triazol-4-yl)methoxy)-2-nitrophenyl)amino)pentyl)ureido)pentanedioic Acid], the Ki stood at 0.07 nM and the “PSMA Blkg % (1.0 μM)” value is reported as 99%.
Consider `O=C(O)CC[C@H](NS(=O)(=O)NC(=O)OCc1ccccc1)C(=O)O` [P178, (S)-2-((N-((Benzyloxy)carbonyl)sulfamoyl)amino)pentanedioic Acid], for which the “PSMA Blkg % (10 μM)” value (compound at 10 μM) was 1%.
With `O=C(O)CC[C@H](NC(=O)N[C@@H](CCCCNc1nc(-c2ccnc(Cl)c2)cs1)C(=O)O)C(=O)O` [P236, (S)-2-(3-((S)-1-Carboxy-5-(4-(2-chloropyridin-4-yl)thiazol-2-ylamino)pentyl)ureido)-pentanedioic Acid], the “PSMA Blkg % (1.0 μM)” value amounted to 99%.
Regarding `O=C(O)CCC(C(=O)O)N1C(=O)N[C@@H](CC2CCN(C(=O)CCCc3ccc(-n4cc(CCCF)nn4)cc3)CC2)C1=O` (some centres unmarked) [P231], the “PSMA Blkg % (1.0 μM)” value is 63%.
Take `O=C(O)CC[C@@H](C(=O)O)N1C(=O)/C(=C(/O)Cn2cc(CCCF)nn2)C(=O)N(Cc2ccccc2)C1=O` [P096, (S,E)-2-(3-Benzyl-5-(2-(4-(3-fluoropropyl)-1H-1,2,3-triazol-1-yl)-1-hydroxyethylidene)-2,4,6-trioxotetrahydropyrimidin-1(2H)-yl)pentanedioic Acid]: the “PSMA Blkg % (10 μM)” value (compound at 10 μM) worked out at 3%.
Compound `O=C(O)CC[C@H](NC(=O)N[C@@H](CCCCn1cc(CCCF)nn1)C(=O)O)C(=O)O` [P188, (S)-2-(3-((S)-1-Carboxy-5-(4-(3-fluoropropyl)-1H-1,2,3-triazol-1-yl)pentyl)ureido)-pentanedioic Acid] returned a Ki of 6.6 nM. Also, the “PSMA Blkg % (10 μM)” value (compound at 10 μM) is 99%.
With `O=C(O)CCC(CP(=O)(O)OC[C@@H]1CCCN1C(=O)CCc1ccc(-n2cc(CCCF)nn2)cc1)C(=O)O` (stereo partly drawn) [P206, 2-(((((S)-1-(3-(4-(4-(3-Fluoropropyl)-1H-1,2,3-triazol-1-yl)phenyl)propanoyl)pyrrolidin-2-yl)methoxy)(hydroxy)phosphoryl)methyl)pentanedioic Acid], the “PSMA Blkg % (10 μM)” value (10 μM) is 81%.
As for `O=C(O)CC[C@H](NC(=O)N[C@@H](CC1CCN(C(=O)c2cc(C(=O)N3CCC(C[C@H](NC(=O)N[C@@H](CCC(=O)O)C(=O)O)C(=O)O)CC3)cc(-n3cc(CCCF)nn3)c2)CC1)C(=O)O)C(=O)O` [P272, (S)-2-(3-((S)-1-Carboxy-2-(1-(3-(4-((S)-2-carboxy-2-(3-((S)-1,3-dicarboxypropyl)-ureido)ethyl)piperidine-1-carbonyl)-5-(4-(3-fluoropropyl)-1H-1,2,3-triazol-1-yl)benzoyl)piperidin-4-yl)ethyl)ureido)pentanedioic Acid], affinity was put at a Ki of 2.5 nM and the “PSMA Blkg % (1.0 μM)” value stood at 97%.
Take `O=C(O)CC[C@H](NC(=O)N[C@@H](CCCCNC(=O)c1ccnc(F)c1)C(=O)O)C(=O)O` [P004, (S)-2-(3-((S)-1-Carboxy-5-(2-fluoroisonicotinamido)pentyl)ureido)pentanedioic Acid]: the affinity corresponds to a Ki of 15.6 nM. The “PSMA Blkg % (10 μM)” value (compound at 10 μM) worked out at 90%.
In the case of `NC(=O)CCC(C(=O)O)n1cc(COc2ccc3ccc(=O)oc3c2)nn1` (centres unmarked) [P121, 5-Amino-5-oxo-2-(4-(((2-oxo-2H-chromen-7-yl)oxy)methyl)-1H-1,2,3-triazol-1-yl)pentanoic Acid], the “PSMA Blkg % (10 μM)” value (compound at 10 μM) came to 7%.
For the compound `CCC1(CC)C(=O)N([C@@H](CCCCNC(=O)OCc2ccccc2)C(=O)O)C(=S)N([C@@H](CCC(=O)O)C(=O)O)C1=O` [P138, (S)-2-(3-((S)-5-(Benzyloxycarbonylamino)-1-carboxypentyl)-5,5-diethyl-4,6-dioxo-2-thioxotetrahydropyrimidin-1(2H)-yl)pentanedioic Acid], the “PSMA Blkg % (10 μM)” value (compound at 10 μM) was determined as 6%.
With `[N-]=[N+]=NCCCC(=O)Nc1ccc(C[C@H](NC(=O)N[C@@H](CCC(=O)O)C(=O)O)C(=O)O)cc1` [P062, (S)-2-(3-((S)-2-(4-(4-Azidobutaneamido)phenyl)-1-carboxyethyl)-ureido)-pentanedioic Acid], the “PSMA Blkg % (10 μM)” value (compound at 10 μM) was determined as 97%.
